Values joined by “and” are separate entries in the source; they are usually repeats but may differ in a detail not shown here. Equal values may be shown once. Read-outs that look alike come from different tables or passages of the source.
Tested on: canine filaria; Dirofilaria immitis
Assay: Test of anthelmintic effect against canine filaria in naturally infected dogs, subcutaneous injection, microfilaria in blood and adult filaria at autopsy (Test Examples A10, B10, C10, D10)
Format: in vivo
Settings: for inhibition in vivo at 30 mg/kg: Dirofilaria immitis, sc, 240 h

## C=CCN(OC)C(C)=O [Compound B1, N-allyl-N-acetyl-O-methylhydroxylamine]
dog, 30 mg/Kg x 3, subcutaneous injection, read-out: Effect on adult filaria: Percent of worms killed
  inhibition in vivo at 30 mg/kg: 58%
dogs, administration of 30 mg/Kg repeated three times, given as about 50% or more, read-out: anthelmintic effect against adult filaria
  inhibition in vivo at 30 mg/kg: ≥ 50%
dog, 30 mg/Kg x 3, subcutaneous injection, suspension in 1% Tween 80
  Number of microfilaria/20 µl on 10th day after the last administration: 0 /20 µl
dog, 30 mg/Kg x 3, subcutaneous injection, 30 mg/kg
  Effect on adult filaria: Number of worms killed/ Total parasite: 8/15 and 12/21
dogs, administration of 30 mg/Kg repeated three times
  anthelmintic effect against microfilaria (mf): marked anthelmintic effect
